Values quoted from earlier work in patent publication US20260284033A1, “COMBINATION THERAPY WITH LP-PLA2 INHIBITOR AND A SECOND AGENT” (SciNeuro Therapeutics Inc., priority 2023, published 2026).

How the values were obtained:
AD patients = conditions: phase 2, AD patients
[1] = test system: BBB leakage animal models

Row | Compound | cognitive decline (AD patients) | disease biomarkers (AD patients) | tolerability (AD patients) | BBB leakage [1] | vascular dementia pathology [1]
1 | COCCN1CCC(N(Cc2ccc(-c3ccc(C(F)(F)F)cc3)cc2)C(=O)Cn2c(SCc3cccc(F)c3F)cc(=O)c3ccccc32)CC1 [rilapladib] | slowed down cognitive decline | improved disease biomarkers | well tolerated | – | –
2 | CCN(CC)CCN(Cc1ccc(-c2ccc(C(F)(F)F)cc2)cc1)C(=O)Cn1c(SCc2ccc(F)cc2)nc(=O)c2c1CCC2 [darapladib] | – | – | – | reduced BBB leakage | improved vascular dementia pathology
